# Assays:
# [1] = test system: human red blood cells; type: cell-based
# Description: The effect of NOVO3 on the hemolysis of human red blood cells was also tested. A total of 10 ml of expired packed red blood cells from the blood bank was gently added to 80 ml of PBS (Phosphate buffered saline), and pelleted at 1000 g for 5 minutes at 4° C. The upper phase and buffy layer (white blood cells) were removed. The cells are repeatedly washed by gentle mixing with PBS, and centrifugation until the upper phase is clear. In the last wash, 40 ml of 1×PBS with 0.05% BSA was added to half of the red blood cells while 40 ml of 1×PBS without BSA was added to the other half. The upper phase of the last wash was removed to leave a total volume of about 10 ml. The concentration of the red blood cells was measured by using the spectrophometer at 600 nm. […]
# The compound NOVO3 is two-fold serially diluted (similar to that described above for mammalian NIH3T3 cytotoxicity assay) as 100× concentration in DMSO, ranging from 12.5 μg/ml to 3200 μg/ml. […] After thorough mixing, the absorbance at 450 nm was read using a Spectramax Plus Spectrophotometer, with wells A12, and B12 reserved […], using wells with only 1×PBS as blanks.
# The absorbance at 450 nm measured the amount of hemoglobin released by the lysis of red blood cells (FIG. 4). […]
# [2] = test system: B. subtilis 1A1; assay: Growth inhibition on solid agar (5 μl spot on bacterial lawn); type: cell-based; conditions: minimal concentration giving observable zone of no growth, MHB agar
# [3] = test system: B. anthracis Sterne; type: cell-based; conditions: minimal concentration giving observable zone of no growth, MHB agar
# [4] = test system: MRSA NRS1; assay: Growth inhibition on solid agar (5 μl spot on bacterial lawn); type: cell-based, Staphylococcus aureus; conditions: minimal concentration giving observable zone of no growth, MHB agar
# [5] = test system: MRSA NRS108; assay: as above; type: cell-based, Staphylococcus aureus; conditions: minimal concentration giving observable zone of no growth, MHB agar
# [6] = test system: E. faecalis ATCC 51575 (VRE); assay: as above; type: cell-based; conditions: minimal concentration giving observable zone of no growth, MHB agar
# [7] = test system: E. faecalis ATCC 51299 (VRE); assay: as above; type: cell-based; conditions: minimal concentration giving observable zone of no growth, MHB agar
# [8] = test system: E. faecalis BM4147 (VRE); assay: as above; type: cell-based; conditions: minimal concentration giving observable zone of no growth, MHB agar
# [9] = test system: NIH3T3 mouse embryonic fibroblasts; assay: Mammalian cytotoxicity assay (CellTiter 96 AQueous One Solution); type: cell-based; conditions: NIH3T3 cells, 24 hr exposure; concentration with 50% of control signal
# Description: Mammalian cytotoxicity assays were performed using NIH3T3 mouse embryonic fibroblasts (ATCC CRL-1658), and cytotoxicity was measured using the CellTiter 96® AQueous One Solution Cell Proliferation Assay (Promega, Madison, Wis., Cat: G3582), according to the manufacturer's recommendations.
# A control of DMSO was also included (wells in column A01, and A12).
# An exponentially growing population of NIH/3T3 mouse embryonic fibroblast cells was trypsinized into single cell suspension and seeded at 3000 cells per 100 μl in all wells, except column 11 and 12 of a sterile 96-well flat bottom plate. […]
# The plate was visually inspected under a dissecting microscope, and the absorbance at 490 nm was read using a Spectramax Plus Spectrophotometer, with wells A12, and B12 reserved as blanks (FIG. 3). The signal of compound alone (well All) was verified not to contribute to the absorbance at this wavelength. Next, 20 μl of the CellTiter 96® AQueous One Solution Cell Proliferation Assay (Promega, Madison, Wis., Cat: G3582) was added to each well, and the plate was read after 3 hr of incubation. […]
# [10] = test system: MSSA 29213; assay: Minimal Inhibitory Concentration in broth; type: cell-based; conditions: Staphylococcus aureus
# [11] = test system: MSSA 33591; assay: Minimal Inhibitory Concentration in broth; type: cell-based; conditions: Staphylococcus aureus
# [12] = test system: C. difficile 2001; assay: Minimal Inhibitory Concentration in broth; type: cell-based; conditions: Clostridioides difficile, 2001, C. difficile 2001
# [13] = test system: C. difficile 196; assay: Minimal Inhibitory Concentration in broth; type: cell-based; conditions: Clostridioides difficile, MHB + 0.05% BSA
# [14] = test system: B. subtilis 1A1; assay: Minimal Inhibitory Concentration in broth; conditions: Bacillus subtilis, 1A1, B. subtilis 1A1
# [15] = test system: MRSA NRS108; assay: Minimal Inhibitory Concentration in broth; conditions: Staphylococcus aureus
molecule,measurement,setting,value
Triton X100 [reference compound],absorbance at 450 nm (hemoglobin released),[1],0.41
CC1/C=C/C=C\C=C\CC(C)C(OC2OC(C)C(O)C(N)C2O)C\C=C/C=C/C=C\C(=O)NC1 (stereo not shown) [NOVO3],Growth Inhibition with 5 μl of NOVO3,[2],0.125 µg/mL
same,Growth Inhibition with 5 μl of NOVO3,[3],1.25 µg/mL
same,Growth Inhibition with 5 μl of NOVO3,[4],1.25 µg/mL
same,Growth Inhibition with 5 μl of NOVO3,[5],1.25 µg/mL
same,Growth Inhibition with 5 μl of NOVO3,[6],5 µg/mL
same,Growth Inhibition with 5 μl of NOVO3,[7],1.25 µg/mL
same,Growth Inhibition with 5 μl of NOVO3,[8],1.25 µg/mL
same,LD50,[9],> 32 µg/mL
same,hemolysis,[1],no significant hemolysis
same,MIC,[10]; MHB,8 µg/mL
same,MIC,[10]; MHB + 0.05% BSA,0.25 µg/mL
same,MIC,[11]; MHB,8 µg/mL
same,MIC,[11]; MHB + 0.05% BSA,0.25 µg/mL
same,MIC,[12]; MHB,32 µg/mL
same,MIC,[12]; MHB + 0.05% BSA,8 µg/mL
same,MIC,[13],8 µg/mL
same,MIC,[14]; MHB (Table 3),3 ± 1.3 µg/mL
same,MIC,"[14]; MHB (Table 4, serum study)",3 ± 1.3 µg/mL
same,MIC,[14]; MHB + 0.02% Tween 80,0.25 µg/mL
same,MIC,[14]; MHB + 0.05% BSA,0.166 ± 0.08 µg/mL
same,MIC,[14]; MHB + 10% Calf Bovine Serum,0.144 µg/mL
same,MIC,[14]; MHB + 10% human serum,0.125 µg/mL
same,MIC,[14]; MHB + 10% mouse serum,0.125 µg/mL
same,MIC,[14]; MHB + 40% Calf Bovine Serum,0.125 µg/mL
same,MIC,"[15]; MRSA NRS108, MHB (Table 3)",8 µg/mL
same,MIC,"[15]; MRSA NRS108, MHB (Table 4B, serum study)",4 to 8 µg/mL
same,MIC,"[15]; MRSA NRS108, MHB + 0.05% BSA",0.25 to 0.5 µg/mL
same,MIC,"[15]; MRSA NRS108, MHB + 10% Calf Bovine Serum",0.25 to 0.5 µg/mL
same,MIC,"[15]; MRSA NRS108, MHB + 40% Calf Bovine Serum",0.25 µg/mL
same,MIC,"[15]; MRSA|NRS108, MRSA NRS108, GM (Dulbecco's Modified Eagle's medium with 10% bovine calf serum)",0.25 µg/mL

# Reference: US8097709B2, “Macrolactam compounds” (Novobiotic Pharmaceuticals, Inc., priority 2007, dated 2012)
